Among the data in patent US8680139B2 (Progenra, priority 2009, dated 2014) are EC50 values, retold here.

SMILES strings stand for the structures.

The target of this assay is T1, USP7 (Homo sapiens, UniProt Q93009).
T1 construct: full length human USP7 protein; made in house
T1 sequence (Q93009 whole entry): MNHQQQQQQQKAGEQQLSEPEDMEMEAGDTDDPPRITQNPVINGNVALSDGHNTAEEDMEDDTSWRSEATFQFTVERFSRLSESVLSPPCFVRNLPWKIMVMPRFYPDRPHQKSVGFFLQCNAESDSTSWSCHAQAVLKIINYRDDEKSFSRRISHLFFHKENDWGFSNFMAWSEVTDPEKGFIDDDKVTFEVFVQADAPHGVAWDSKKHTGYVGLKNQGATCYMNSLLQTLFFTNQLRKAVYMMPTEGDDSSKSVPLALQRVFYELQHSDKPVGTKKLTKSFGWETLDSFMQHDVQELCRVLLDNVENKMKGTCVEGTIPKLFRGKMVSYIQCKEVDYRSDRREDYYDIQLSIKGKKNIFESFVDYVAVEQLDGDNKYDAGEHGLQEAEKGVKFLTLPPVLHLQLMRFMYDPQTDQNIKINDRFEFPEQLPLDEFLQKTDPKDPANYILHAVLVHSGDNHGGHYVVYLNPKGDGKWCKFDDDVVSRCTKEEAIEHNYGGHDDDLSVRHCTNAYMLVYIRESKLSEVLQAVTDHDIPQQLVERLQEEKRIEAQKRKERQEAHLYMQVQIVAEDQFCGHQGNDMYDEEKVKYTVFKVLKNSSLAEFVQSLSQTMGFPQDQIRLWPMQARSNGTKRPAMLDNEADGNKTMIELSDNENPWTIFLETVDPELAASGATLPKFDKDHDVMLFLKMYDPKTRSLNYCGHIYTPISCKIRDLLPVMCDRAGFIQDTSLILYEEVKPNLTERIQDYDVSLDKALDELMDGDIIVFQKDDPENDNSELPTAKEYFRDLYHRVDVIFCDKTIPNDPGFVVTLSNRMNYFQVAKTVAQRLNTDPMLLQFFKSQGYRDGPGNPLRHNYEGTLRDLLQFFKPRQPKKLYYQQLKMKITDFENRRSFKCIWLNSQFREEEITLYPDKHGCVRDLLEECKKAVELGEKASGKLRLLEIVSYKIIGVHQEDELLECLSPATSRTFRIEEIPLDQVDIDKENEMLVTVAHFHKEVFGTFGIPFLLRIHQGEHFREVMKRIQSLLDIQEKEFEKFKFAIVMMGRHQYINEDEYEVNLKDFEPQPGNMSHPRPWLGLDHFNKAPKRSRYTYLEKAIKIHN
In words: USP7, Ub-PLA2 assay. In kind it is biochemical. As to conditions: Ub-PLA2 / NBD C6-HPC fluorescence, 30 minute preincubation; read-out: EC50 for inhibition of USP7. A digest of the protocol:
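Compounds tested against USP7 with DMSO vehicle control and NEM-treated wells as background. Fluorescence (RFU) read-out; % inhibition normalized per plate to mean DMSO and NEM controls.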
`O=C(NCC(=O)N1CCC(CO)CC1)c1cc([N+](=O)[O-])c(Sc2c(Cl)cncc2Cl)s1` [Example 215, 5-((3,5-dichloropyridin-4-yl)thio)-N-(2-(4-(hydroxymethyl)piperidin-1-yl)-2-oxoethyl)-4-nitrothiophene-2-carboxamide]: the EC50 (in general, the midpoint of the concentration-response curve) was in the range of 1000 to 10000 nM.
In the case of `Cn1nccc1NC(=O)c1cc([N+](=O)[O-])c(Sc2c(Cl)cncc2Cl)s1` [Example 167, 5-((3,5-dichloropyridin-4-yl)thio)-N-(1-methyl-1H-pyrazol-5-yl)-4-nitrothiophene-2-carboxamide], the EC50 was not above 1000 nM.
In the case of `CC(=O)c1cc([N+](=O)[O-])c(Sc2ccc(-c3ccccc3)cc2)s1` [Example 16, 1-[4-nitro-5-(4-phenylphenyl)sulfanyl-2-thienyl]ethanone] it was more than 10000 nM; in that of `O=C(NCC(O)CN1CCCCC1)c1cc([N+](=O)[O-])c(Sc2c(Cl)cncc2Cl)s1` (centres unmarked) [Example 241, 5-((3,5-dichloropyridin-4-yl)thio)-N-(2-hydroxy-3-(piperidin-1-yl)propyl)-4-nitrothiophene-2-carboxamide], 1000 to 10000 nM; in that of `COc1ccccc1CCNC(=O)c1cc([N+](=O)[O-])c(Sc2c(Cl)cncc2Cl)s1` [Example 113, 5-((3,5-dichloropyridin-4-yl)thio)-N-(2-methoxyphenethyl)-4-nitrothiophene-2-carboxamide], not above 1000 nM.
In the case of `O=C(NCc1ccc(Br)cc1)c1cc([N+](=O)[O-])c(Sc2c(Cl)cncc2Cl)s1` [Example 118, N-(4-bromobenzyl)-5-((3,5-dichloropyridin-4-yl)thio)-4-nitrothiophene-2-carboxamide] it was not above 1000 nM; in that of `O=C(CNC(=O)c1cc([N+](=O)[O-])c(Sc2c(Cl)cncc2Cl)s1)NC1CCCCC1` [Example 220], 1000 to 10000 nM; in that of `O=C(Nc1ccc2c(c1)OCO2)c1cc([N+](=O)[O-])c(Sc2c(Cl)cncc2Cl)s1` [Example 158, N-(benzo[d][1,3]dioxol-5-yl)-5-((3,5-dichloropyridin-4-yl)thio)-4-nitrothiophene-2-carboxamide], not above 1000 nM.
`Cc1cccc(CNC(=O)c2cc([N+](=O)[O-])c(Sc3c(Cl)cncc3Cl)s2)c1` [Example 150, 5-((3,5-dichloropyridin-4-yl)thio)-N-(3-methylbenzyl)-4-nitrothiophene-2-carboxamide]: the EC50 is not above 1000 nM.
In the case of `COc1ccc(NC(=O)c2cc([N+](=O)[O-])c(Sc3c(Cl)cncc3Cl)s2)cc1OC` [Example 170, 5-((3,5-dichloropyridin-4-yl)thio)-4-nitro-N-(3,4-dimethoxyphenyl)thiophene-2-carboxamide] it was not above 1000 nM; in that of `CC(=O)c1cc([N+](=O)[O-])c(Sc2cccc(Cl)c2)s1` [Example 6, 1-[5-(3-Chlorophenylsulfanyl)-4-nitro-2-thienyl]ethanone], 1000 to 10000 nM; in that of `COc1cccc(CNC(=O)c2cc([N+](=O)[O-])c(Sc3c(Cl)cncc3Cl)s2)c1OC` [Example 97, 5-((3,5-dichloropyridin-4-yl)thio)-N-(2,3-dimethoxybenzyl)-4-nitrothiophene-2-carboxamide], not above 1000 nM.
In the case of `O=C(NCC(=O)N1CCCCC1)c1cc([N+](=O)[O-])c(Sc2c(Cl)cncc2Cl)s1` [Example 221, 5-((3,5-dichloropyridin-4-yl)thio)-4-nitro-N-(2-oxo-2-(piperidin-1-yl)ethyl)thiophene-2-carboxamide] it was 1000 to 10000 nM.
Turning to `O=C(NCc1cccc(Cl)c1)c1cc([N+](=O)[O-])c(Sc2c(Cl)cncc2Cl)s1` [Example 57, N-(3-chlorobenzyl)-5-((3,5-dichloropyridin-4-yl)thio)-4-nitrothiophene-2-carboxamide], the EC50 lay within 1000 to 10000 nM.
In the case of `O=C(NCCc1ccc(Br)cc1)c1cc([N+](=O)[O-])c(Sc2c(Cl)cncc2Cl)s1` [Example 105, N-(4-bromophenethyl)-5-((3,5-dichloropyridin-4-yl)thio)-4-nitrothiophene-2-carboxamide] it was not above 1000 nM; in that of `O=C(c1cc([N+](=O)[O-])c(Sc2c(Cl)cncc2Cl)s1)N1CCCC(O)C1` (centres unmarked) [Example 83, (5-((3,5-dichloropyridin-4-yl)thio)-4-nitrothiophen-2-yl)(3-hydroxypiperidin-1-yl)methanone], 1000 to 10000 nM.
On to `O=C(NC1CC1)c1cc([N+](=O)[O-])c(Sc2c(Cl)cncc2Cl)s1` [Example 124, N-cyclopropyl-5-((3,5-dichloropyridin-4-yl)thio)-4-nitrothiophene-2-carboxamide], for which the EC50 is not above 1000 nM.
For `CC(C)NC(=O)c1cc([N+](=O)[O-])c(Sc2c(Cl)cncc2Cl)s1` [Example 44, 5-[(3,5-dichloro-4-pyridyl)sulfanyl]-N-isopropyl-4-nitro-thiophene-2-carboxamide], the EC50 is 1000 to 10000 nM.
In the case of `O=C(Nc1ccc2c(c1)CCC2)c1cc([N+](=O)[O-])c(Sc2c(Cl)cncc2Cl)s1` [Example 112] it was not above 1000 nM; in that of `CCN1CCC(CCNC(=O)c2cc([N+](=O)[O-])c(Sc3c(Cl)cncc3Cl)s2)CC1` [Example 185, 5-((3,5-dichloropyridin-4-yl)thio)-N-(2-(1-ethylpiperidin-4-yl)ethyl)-4-nitrothiophene-2-carboxamide], not above 1000 nM; in that of `N=C(N)N1CCC(NC(=O)c2cc([N+](=O)[O-])c(Sc3c(Cl)cncc3Cl)s2)CC1` [Example 237, N-(1-carbamimidoylpiperidin-4-yl)-5-((3,5-dichloropyridin-4-yl)thio)-4-nitrothiophene-2-carboxamide], not above 1000 nM.
Regarding `CC(c1cc([N+](=O)[O-])c(Sc2ccc(Cl)cc2Cl)s1)N(C)C` (centres unmarked) [Example 29, 1-[5-(2,4-dichlorophenyl)sulfanyl-4-nitro-2-thienyl]-N,N-dimethyl-ethanamine], the EC50 was more than 10000 nM.
`CC(=O)c1cc([N+](=O)[O-])c(Sc2c(F)c(F)cc(F)c2F)s1` [Example 36, 1-[4-nitro-5-(2,3,5,6-tetrafluorophenyl)sulfanyl-2-thienyl]ethanone]: the EC50 lay within 1000 to 10000 nM.
In the case of `CN1CCN(CCCNC(=O)c2cc([N+](=O)[O-])c(Sc3c(Cl)cncc3Cl)s2)CC1` [Example 65] it was 1000 to 10000 nM; in that of `O=C(NCc1ccc2c(c1)OCO2)c1cc([N+](=O)[O-])c(Sc2c(Cl)cncc2Cl)s1` [Example 151, N-(benzo[d][1,3]dioxol-5-ylmethyl)-5-((3,5-dichloropyridin-4-yl)thio)-4-nitrothiophene-2-carboxamide], not above 1000 nM; in that of `CC(=O)c1cc([N+](=O)[O-])c(Sc2ccncc2Cl)s1` [Example 39, 1-[5-[(3-chloro-4-pyridyl)sulfanyl]-4-nitro-2-thienyl]ethanone], more than 10000 nM.
Turning to `O=C(Nc1ccc(Br)cc1)c1cc([N+](=O)[O-])c(Sc2c(Cl)cncc2Cl)s1` [Example 152, N-(4-bromophenyl)-5-((3,5-dichloropyridin-4-yl)thio)-4-nitrothiophene-2-carboxamide], the EC50 is not above 1000 nM.
In the case of `CN(C)CCNC(=O)c1cc([N+](=O)[O-])c(Sc2c(Cl)cncc2Cl)s1` [Example 48, 5-[(3,5-dichloro-4-pyridyl)sulfanyl]-N-(2-dimethylaminoethyl)-4-nitro-thiophene-2-carboxamide] it was 1000 to 10000 nM; in that of `CC(=O)Nc1cccc(CNC(=O)c2cc([N+](=O)[O-])c(Sc3c(Cl)cncc3Cl)s2)c1` [Example 122, N-(3-acetamidobenzyl)-5-((3,5-dichloropyridin-4-yl)thio)-4-nitrothiophene-2-carboxamide], not above 1000 nM; in that of `CS(=O)(=O)c1ccc(CNC(=O)c2cc([N+](=O)[O-])c(Sc3c(Cl)cncc3Cl)s2)cc1` [Example 102, 5-((3,5-dichloropyridin-4-yl)thio)-N-(4-(methylsulfonyl)benzyl)-4-nitrothiophene-2-carboxamide], not above 1000 nM.
In the case of `COC(=O)c1cc([N+](=O)[O-])c(Sc2c(Cl)cncc2Cl)s1` [Example 43, Methyl 5-[(3,5-dichloro-4-pyridyl)sulfanyl]-4-nitro-thiophene-2-carboxylate] it was 1000 to 10000 nM; in that of `COc1ccc(CNC(=O)c2cc([N+](=O)[O-])c(Sc3c(Cl)cncc3Cl)s2)cc1OC` [Example 98, 5-((3,5-dichloropyridin-4-yl)thio)-N-(3,4-dimethoxybenzyl)-4-nitrothiophene-2-carboxamide], not above 1000 nM.
Turning to `CN1CCC(NC(=O)c2cc([N+](=O)[O-])c(Sc3ccc(Cl)cc3Cl)s2)CC1` [Example 81, 5-((2,4-dichlorophenyl)thio)-N-(1-methylpiperidin-4-yl)-4-nitrothiophene-2-carboxamide], the EC50 lay in the range of 1000 to 10000 nM.
In the case of `CC(=O)c1cc([N+](=O)[O-])c(Sc2cccc3ccccc23)s1` [Example 5, 1-[5-(Naphth-1-ylsulfanyl)-4-nitro-2-thienyl]ethanone] it was more than 10000 nM.
In the case of `CN(C)c1ccc(CNC(=O)c2cc([N+](=O)[O-])c(Sc3c(Cl)cncc3Cl)s2)cc1` [Example 121, 5-((3,5-dichloropyridin-4-yl)thio)-N-(4-(dimethylamino)benzyl)-4-nitrothiophene-2-carboxamide] it was not above 1000 nM.
Turning to `CN1CCC(NC(=O)c2cc([N+](=O)[O-])c(Oc3c(Cl)cccc3Cl)s2)CC1` [Example 261, 5-(2,6-dichlorophenoxy)-N-(1-methylpiperidin-4-yl)-4-nitrothiophene-2-carboxamide], the EC50 is more than 10000 nM.
Take `O=C(Nc1cc(C(F)(F)F)n[nH]1)c1cc([N+](=O)[O-])c(Sc2c(Cl)cncc2Cl)s1` [Example 164, 5-((3,5-dichloropyridin-4-yl)thio)-4-nitro-N-(3-(trifluoromethyl)-1H-pyrazol-5-yl)thiophene-2-carboxamide]: the concentration for a half-maximal effect (EC50) is not above 1000 nM.
In the case of `O=C(NC1C2CC3CC(C2)CC1C3)c1cc([N+](=O)[O-])c(Sc2c(Cl)cncc2Cl)s1` (centres unmarked) [Example 75, N-((1r,3r,5r,7r)-adamantan-2-yl)-5-((3,5-dichloropyridin-4-yl)thio)-4-nitrothiophene-2-carboxamide], the EC50 lay within 1000 to 10000 nM.
